The values that follow come from patent US7071168B2, “Anti-cancer compounds and methods related thereto” (The Regents of the University of Colorado, priority 1998, dated 2006).

The first assay has as its system bradykinin response of isolated guinea pig ileum. Put plainly: Anti-bradykinin activity on isolated guinea pig ileum. The settings on record: Table 1; higher numbers indicate higher potency. On the procedure: In general, Anti-bradykinin activity was determined by the classical guinea pig ileum assay and on Chinese hamster ovary (CHO) cells expressing cloned human bradykinin B2 receptors. Anti-tumor activity was determined on cultured human cancer cell lines using the standard tetrazolium (MTT) assay.
Male Hartley guinea pigs that had been deprived of food overnight were sacrificed, and sections of terminal ileum, 25 mm in length, were dissected, attached to tissue holders and immersed in 10 ml tissue baths containing Krebs' solution bubbled with 95% O2/5% CO2. Tissues were placed under 1 g tension and incubated for 1 h equilibration. Concentration-effect curves were constructed to bradykinin in the absence and presence of new compounds.
`N=C(N)NCCCC(NC(=O)C=Cc1c(F)c(F)c(F)c(F)c1F)C(=O)O` (stereo not shown) [M370, F5c-Arg]: the “GPI: pA2 for bradykinin antagonist activity on isolated guinea pig ileum” value (“GPI: pA2” below) came out at 4.8.

Take `N=C(N)NCCCC(NC(=O)C=Cc1ccc(C(F)(F)F)cc1)C(=O)O` (stereo not shown) [M374, Tfmc-Arg]: the “GPI: pA2” value is reported as 4.6.

Regarding “Aaa-DArg-Arg-Pro-Hyp-Gly-(D,L)DMF-Ser-DTic-Oic-Arg [B9126-2]”, the “GPI: pA2” value was 7.3.

Regarding “Aaa-DArg-Arg-Pro-Hyp-Gly-(D,L)DMF-Ser-DTic-Oic-Arg [B9126]”, the “GPI: pA2” value stood at 6.4.

Regarding Aaa-DIgl-hPhe-Arg [M772], the “GPI: pA2” value is on record as 4.9.

For the compound Aaa-DTic-hPhe-Arg [M764], the “GPI: pA2” value amounted to 4.8.

For Ac-PaF(Dcg)-p-ABz-Arg [M146-2], the “GPI: pA2” value was determined as 4.9.

As to Ac-PaF(Mcg)-Arg [M118-1], the “GPI: pA2” value was determined as 4.9.

Consider Ac-PaF(Mcg)-p-ABz-Arg [M146-1], for which the “GPI: pA2” value is reported as “Inact”.

With Ac-Pac-Gly-m-Abz-2-Nal-Arg [M198], the “GPI: pA2” value stood at 5.1.

With Ac-PdF-Arg [M118-3], the “GPI: pA2” value was found to be 5.4.

On to “Aca-DArg-Arg-Pro-Hyp-Gly-Thi-Ser-(D,L)Igl-Oic-Arg [B9224-2]”, for which the “GPI: pA2” value turned out to be 8.4.

Turning to Arg-Eac-DIgl-Ana-Arg [M406], the “GPI: pA2” value is recorded as “Inact”.

“DArg-Arg-NMF-Hyp-Gly-Thi-Ser-DIgl-Oic-Arg [B9966]”: the “GPI: pA2” value came out at 6.9.

Take “DArg-Arg-Nig-Hyp-Gly-Igl-Ser-DIgl-Oic-Arg [B9960]”: the “GPI: pA2” value is reported as 7.7.

As to “DArg-Arg-Pro-Hyp-Gly-CpG-Ser-DCpG-CpG-Arg [B8838]”, the “GPI: pA2” value was 7.0.

Regarding “DArg-Arg-Pro-Hyp-Gly-Igl-Ser-DIgl-Nc7G-Arg [B10010]”, the “GPI: pA2” value was 7.7.

“DArg-Arg-Pro-Hyp-Gly-Phe-Ser-DCpG-CpG-Arg [B8840]”: the “GPI: pA2” value came to 6.8.

Turning to “DArg-Arg-Pro-Hyp-Gly-Thi-Ser-CpG-DCpG-DArg [B8858]”, the “GPI: pA2” value was determined as 5.2.

Turning to “DArg-Arg-Pro-Hyp-Gly-Thi-Ser-DTic-Nc6G-Arg [B10014]”, the “GPI: pA2” value was 7.6.

The assay is the same for the next values; noted with them: isolated guinea pig ileum; pD2 of bradykinin is 7.4; higher numbers indicate higher potency.
`O=C(O)CC(NC(=O)C(Cc1ccc2ccccc2c1)NC(=NC1CCCCC1)NC1CCCCC1)C(=O)NC1CN2CCC1CC2` (single isomer, unassigned) [M336-1]: the “GPI: pA2” value was 5.1.

Turning to `O=C(O)CC(NC(=O)C(Cc1ccc2ccccc2c1)NC(=NC1CCCCC1)NC1CCCCC1)C(=O)NC1CN2CCC1CC2` (single isomer, unassigned) [M336-2], the “GPI: pA2” value stood at 5.4.

For the compound `N=C(N)NCCCCCC(=O)NC(Cc1ccc2ccccc2c1)C(=O)NC(Cc1ccc(NC(=N)N)cc1)C(=O)O` (stereo not shown) [M8], the “GPI: pA2” value is “Inact”.

Take `O=C(O)Cc1ccc(NC(=O)C(Cc2ccc3ccccc3c2)NC(=NC2CCCCC2)NC2CCCCC2)cc1` (stereo not shown) [M30]: the “GPI: pA2” value is reported as 5.4.

With `N=C(N)NC(Cc1ccc2ccccc2c1)C(=O)Nc1ccc(CC(=O)O)cc1` (stereo not shown) [M32], the “GPI: pA2” value amounted to 4.8.

As to `O=C(O)Cc1ccc(NC(=O)C(Cc2ccc3ccccc3c2)NC(=NC2CCCCC2)NC2CCCCC2)cc1` (stereo not shown) [M36], the “GPI: pA2” value was found to be 5.0.

As for `N=C(N)NC(Cc1ccc2ccccc2c1)C(=O)Nc1ccc(CC(=O)O)cc1` (stereo not shown) [M38], the “GPI: pA2” value worked out at 4.9.

Take `O=C(O)Cc1ccc(NC(=O)C(NC(=NC2CCCCC2)NC2CCCCC2)C2Cc3ccccc3C2)cc1` (stereo not shown) [M72-1]: the “GPI: pA2” value turned out to be 4.7.

In the case of `O=C(O)c1cccc(NC(=O)C(Cc2ccc3ccccc3c2)NC(=NC2CCCCC2)NC2CCCCC2)c1` (stereo not shown) [M76], the “GPI: pA2” value is reported as 4.9.

For the compound `Nc1cc(NC(=O)C(Cc2ccc3ccccc3c2)NC(=NC2CCCCC2)NC2CCCCC2)cc(C(=O)O)c1` (stereo not shown) [M92-1], the “GPI: pA2” value came to 5.0.

As for `N=C(N)Nc1cc(NC(=O)C(Cc2ccc3ccccc3c2)NC(=NC2CCCCC2)NC2CCCCC2)cc(C(=O)O)c1` (stereo not shown) [M92-2], the “GPI: pA2” value worked out at 4.8.

For the compound `O=C(O)c1cc(NC(=O)C(Cc2ccc3ccccc3c2)NC(=NC2CCCCC2)NC2CCCCC2)cc(NC(=NC2CCCCC2)NC2CCCCC2)c1` (stereo not shown) [M92-4], the “GPI: pA2” value came out at 5.0.

Consider `O=C(O)C(Cc1cccnc1)NC(=O)C(Cc1ccc2ccccc2c1)NC(=NC1CCCCC1)NC1CCCCC1` (stereo not shown) [M104], for which the “GPI: pA2” value turned out to be 4.9.

For the compound `O=C(O)c1cccc(NC(=O)C(Cc2ccc3ccccc3c2)NC(=NC2CCCCC2)NC2CCCCC2)c1` (stereo not shown) [M112], the “GPI: pA2” value is listed as 5.1.

For the compound `O=C(O)c1ccc(NC(=O)C(Cc2ccc3ccccc3c2)NC(=NC2CCCCC2)NC2CCCCC2)cc1` (stereo not shown) [M120], the “GPI: pA2” value is given as 4.7.

On to `N=C(Nc1ccc(CC(=O)Nc2cccc(C(=O)O)c2)cc1)NC1CCCCC1` [M122-1], for which the “GPI: pA2” value is 5.0.

For `O=C(Cc1ccc(NC(=NC2CCCCC2)NC2CCCCC2)cc1)Nc1cccc(C(=O)O)c1` [M122-2], the “GPI: pA2” value was found to be 4.6.

With `COc1cc(C=CC(=O)NC(Cc2c(F)c(F)c(F)c(F)c2F)C(=O)NC(Cc2cccnc2)C(=O)O)cc(OC)c1O` (stereo not shown) [M136], the “GPI: pA2” value was “Inact”.

In the case of `O=C(O)CC(NC(=O)C(Cc1ccc2ccccc2c1)NC(=NC1CCCCC1)NC1CCCCC1)C(=O)O` (stereo not shown) [M162], the “GPI: pA2” value stood at 4.9.

On to `N=C(Nc1ccc(CC(NC(=O)c2ccc3ccccc3c2)C(=O)O)cc1)NC1CCCCC1` (stereo not shown) [M168-1], for which the “GPI: pA2” value was determined as 4.8.

With `O=C(NC(Cc1ccc(NC(=NC2CCCCC2)NC2CCCCC2)cc1)C(=O)O)c1ccc2ccccc2c1` (stereo not shown) [M168-2], the “GPI: pA2” value turned out to be 4.7.

Take `O=C(NC(CNC(=O)C(Cc1ccc2ccccc2c1)NC(=NC1CCCCC1)NC1CCCCC1)C(=O)O)C1CCNCC1` (stereo not shown) [M172]: the “GPI: pA2” value was 4.9.

As to `O=C(O)CC(NC(=NC1CCCCC1)NC1CCCCC1)C(=O)NC1CN2CCC1CC2` (stereo not shown) [M174], the “GPI: pA2” value is “Inact”.

For `O=C(C=Cc1c(F)c(F)c(F)c(F)c1F)Nc1ccc(C(=O)N[C@@H](Cc2ccc3ccccc3c2)C(=O)O)cc1` [M180], the “GPI: pA2” value stood at 5.1.

For the compound `O=C(C[C@H](NC(=O)[C@H](Cc1ccc2ccccc2c1)NC(=NC1CCCCC1)NC1CCCCC1)C(=O)O)NC1CN2CCC1CC2` (stereo partly shown) [M188B], the “GPI: pA2” value came to 5.5.

In the case of `O=C(C=Cc1c(F)c(F)c(F)c(F)c1F)NCC(=O)Nc1cccc(C(=O)N[C@@H](Cc2ccc3ccccc3c2)C(=O)O)c1` [M202], the “GPI: pA2” value is on record as 5.1.

`CC(=O)Nc1ccc(C=CC(=O)NCC(=O)Nc2cccc(C(=O)NC(Cc3ccc4ccccc4c3)C(=O)O)c2)cc1` (stereo not shown) [M204]: the “GPI: pA2” value is 5.0.

Take `CC1(C)CC(NC(=O)[C@H](Cc2ccc3ccccc3c2)NC(=O)C23CC4CC(CC(C4)C2)C3)CC(C)(C)N1` [M250]: the “GPI: pA2” value was found to be 5.2.

Regarding `CC1(C)CC(NC(=O)[C@@H](NC(=NC2CCCCC2)NC2CCCCC2)C2Cc3ccccc3C2)CC(C)(C)N1Cc1ccccc1` [M258], the “GPI: pA2” value came out at 5.0.

For the compound `CC1(C)C=C(C(=O)NCCNC(=O)[C@H](Cc2ccc3ccccc3c2)NC(=NC2CCCCC2)NC2CCCCC2)C(C)(C)N1` [M270], the “GPI: pA2” value is reported as 6.1.

In the case of `O=C(C=Cc1ccc(NC(=NC2CCCCC2)NC2CCCCC2)cc1)NCC(=O)Nc1cccc(C(=O)NC(Cc2ccc3ccccc3c2)C(=O)O)c1` (stereo not shown) [M340], the “GPI: pA2” value is recorded as 4.8.

Regarding `CC1(C)CC(NC(=O)C(CC(=O)O)NC(=O)C(Cc2ccc3ccccc3c2)NC(=NC2CCCCC2)NC2CCCCC2)CC(C)(C)N1` (stereo not shown) [M342], the “GPI: pA2” value was 5.4.

As to `CC1(C)CC(NC(=O)C(CCC(=O)O)NC(=O)C(Cc2ccc3ccccc3c2)NC(=NC2CCCCC2)NC2CCCCC2)CC(C)(C)N1` (stereo not shown) [M350], the “GPI: pA2” value stood at 5.0.

`N=C(N)Nc1ccc(CC(NC(=O)C(Cc2ccc3ccccc3c2)NC(=NC2CCCCC2)NC2CCCCC2)C(=O)O)cc1` (stereo not shown) [M354]: the “GPI: pA2” value amounted to 5.2.

On to `CC1(C)CC(NC(=O)C(CC(=O)O)NC(=O)Cc2ccc(NC(=NC3CCCCC3)NC3CCCCC3)cc2)CC(C)(C)N1` (stereo not shown) [M362], for which the “GPI: pA2” value stood at 4.9.

Regarding `CC1(C)CC(NC(=O)C(CC(=O)O)NC(=O)Cc2ccc(NC(=O)C=Cc3c(F)c(F)c(F)c(F)c3F)cc2)CC(C)(C)N1` (stereo not shown) [M364], the “GPI: pA2” value is reported as 4.7.

In the case of `CC1(C)CC(NC(=O)C(CC(=O)O)NC(=O)Cc2ccc(NC(=O)C=Cc3ccc(C(F)(F)F)cc3)cc2)CC(C)(C)N1` (stereo not shown) [M368], the “GPI: pA2” value worked out at 4.7.

For the compound `CN1CCN(NC(=O)[C@H](Cc2ccc3ccccc3c2)NC(=O)C=Cc2ccc(NC(=O)CCCCCCCCCCC(=O)Nc3ccc(C=CC(=O)N[C@@H](Cc4ccc5ccccc5c4)C(=O)NN4CCN(C)CC4)cc3)cc2)CC1` [M480-2], the “GPI: pA2” value amounted to 5.6.
